Experimental data: the NIST ThermoML archive (doi:10.1016/j.fluid.2006.07.007)

Settings: Liquid, Ebulliometric method (Recirculating still)

CCO [ethanol]
Settings	vapor or sublimation pressure [kPa]
292.33 K	5.593
303.83 K	10.86
311.14 K	16.15
317.9 K	22.84
323.09 K	29.41
326.8 K	35.11
330.56 K	41.76
333.94 K	48.61
337.18 K	56.06
339.97 K	63.2
342.3 K	69.73
